Source: patent publication US20190091272A1, “ANTI-CANCER DRUG COMPOSITION INCLUDING GANODERMA EXTRACT AND AMPHOTERICIN B” (Taiwan Indigena Botanica Co., Ltd., priority 2015, published 2019)

Test system: human liver carcinoma cell lines including Hep G2, Hep 3G and Hep 5J
Assay: Summary of Examples 1 and 2 over the three liver carcinoma cell lines
Format: cell-based
Protocol: This example used human liver carcinoma cell lines including Hep G2, Hep 3G and Hep 5J for experiments, and the cells were cultured in 96-well plates. The experiments were divided into two groups including a pre-treatment group and a co-treatment group. The cells in the pre-treatment group were pre-treated with the Ganoderma ethanolic extracts for 24 hours and then treated with the amphotericin B for 48 hours, while the cells in the co-treatment group were co-treated with the Ganoderma ethanolic extracts and the amphotericin B together for 48 hours.
In the pre-treatment group, the cells were pre-treated with the Ganoderma ethanolic extracts at concentrations of 0, 1, 2.5 and 5 mg/ml for 24 hours, and then treated with the amphotericin B at concentrations between 0-80 μM for 48 hours, followed by MTT assay. In the co-treatment group, the cells were co-treated with the Ganoderma ethanolic extracts at concentrations of 0, 1, 2.5 and 5 mg/ml and the amphotericin B at concentrations between 0-80 μM for 48 hours, followed by MTT assay. The MTT solution (3-(4,5-Dimethylthiazol-2-yl)-2,5-diphenyltetrazolium bromide) was added to each well, and the plates were further incubated for 45-60 minutes. The cell culture medium was then removed and replaced by DMSO (dimethyl sulfoxide). Subsequently, the optical density (OD) was measured at 550 nm. […]

## C[C@@H]1[C@H](O)[C@@H](C)/C=C/C=C/C=C/C=C/C=C/C=C/C=C/[C@H](O[C@@H]2O[C@H](C)[C@@H](O)[C@H](N)[C@@H]2O)C[C@@H]2O[C@](O)(C[C@@H](O)C[C@@H](O)[C@H](O)CC[C@@H](O)C[C@@H](O)CC(=O)O[C@H]1C)C[C@H](O)[C@H]2C(=O)O [amphotericin B]
After pre-treatment with the Ganoderma ethanolic extract, from the examples
  effective dose of the amphotericin B: at least 3 μM
Based on the results from Examples 1 and 2
  safe and effective dose of the amphotericin B: 3 to 10 µM
